The results in this text go back to article PMC5095062, “The novel choline kinase inhibitor ICL-CCIC-0019 reprograms cellular metabolism and inhibits cancer cell growth” (Oncotarget, 2016).

The subject of series [1] is HCT116 xenografts. Put plainly: Antitumor activity in HCT116 xenograft model. The class given is in vivo, BALB/c nude mice. Particulars: 5 mg/kg i.p. once a day on days 1–3, 11 day recovery. How it is done: All animal experiments were conducted in accordance with the United Kingdom Home Office Guidance on the Operation of The Animals (Scientific Procedures) Act 1986 Amendment Regulations 2012 and within the published guidelines for the welfare and use of animals in cancer research. Xenografts were established in female BALB/c nude mice aged 6–8 weeks (Harlan) by subcutaneous (s.c.) injection of 100 μL HCT116 cells (5 × 10^6 in PBS) on the back of mice. Tumor dimensions were frequently measured by calliper and volumes calculated by the following equation: volume (mm^3) = (π/6) × a × b × c, where a, b, and c represent 3 orthogonal axes of the tumor. When tumor volumes reached approximately 50–100 mm^3 (ca. 10 days post injection), mice were used for subsequent studies.

A further series relates to 2 normal cell lines. Put plainly: Antiproliferative activity (SRB), initial cell line screen. The class given is cell-based. Particulars: Homo sapiens; normal cells. As to the method:
(§1) Enzymatic kinase activity, [^3H]choline to [^3H]PCho conversion and growth inhibition assays was conducted as previously described. [^3H]choline incorporation into soluble and lipid fractions was determined by a pulse-chase experiment. HCT116 cells were seeded at a density of 3 × 10^5 cell per well into 12-well plates and incubated overnight. Cells were treated with 1 or 10 μM ICL-CCIC-0019 for 1 h and pulsed in presence of inhibitor with 18.5 kBq/mL [^3H]choline chloride in 500 μL for 1 additional h. Cells were briefly rinsed with RPMI and incubated with fresh, non-radioactive medium for 6 h. Metabolites were extracted as described elsewhere, but additionally the radioactivity of the choline-containing and chloroform (lipid-containing) fractions was measured. Uptake of radiolabeled metabolite-tracers was measured as described elsewhere. Antiproliferative activity was measured after 72 h continuous exposure to inhibitors by sulforhodamine B (SRB) assay as described elsewhere. Apoptosis was determined using Caspase 3/7 Glo assay (Promega) according to the manufacturer's instructions.

In the next series the test system is 8 cancer cell lines. Described as above. The class given is cell-based. Particulars: Homo sapiens. As to the method: as §1
For series [2], the system named is HCT116 cells. As to the kind of experiment: Reactive oxygen species assay. The class given is cell-based, human. To be noted: 10 μM. How it is done: For ROS measurements, cells were seeded in 96-well plates and treated with indicated ICL-CCIC-0019 (10 μM), pro- and antioxidants (0.25% H2O2 and 5 mM N-acetyl cysteine, NAC; all from Sigma-Aldrich) for indicated times. C400 (Life Technologies) was added at a final concentration of 50 μM and incubated at 37°C for 15 minutes and fluorescence quantified.

Another series has as its target T1, CHKA (Homo sapiens, UniProt P35790).
T1 construct: endogenous in cells; host or cells: HCT116
Put plainly: CHKA dimer integrity by BN-PAGE. The class given is cell-based. To be noted: HCT116 cells, 24 hours. As to the method: Native gels were run using blue native polyacrylamide gel electrophoresis (BN-PAGE) method. Cell homogenates were obtained by addition of passive lysis buffer (Promega) containing protease and phosphatase inhibitors to cell pellets and incubation for 30 minutes on a tube rotor at 4°C. Samples were cleared by centrifugation for 10 minutes at 12 000 × g at 4°C. Samples were prepared by mixing 30 μg protein with an equal volume of 2 × sample buffer (62.5 mM Tris-HCl, pH 6.8, 25% (v/v) glycerol, 0.01% (w/v) bromophenol blue, 0.02% (w/v) Coomassi Blue G250; all from Sigma-Aldrich). As control, D49N CHKA2 [58] was either applied under native conditions (100 ng diluted to 10 μL in 100 mM Tris buffer pH 7.4 added to 10 μL 2 × sample buffer) or denatured using SDS [100 ng diluted in RIPA buffer, 1 × NuPAGE LDS sample buffer and 1 × sample reducing agent (both Life Technologies)] and incubated at 70°C for 10 minutes. Samples were resolved on 4–15% mini-protean TGX gels using 1 × native running buffer (25 mM Tris, 192 mM glycine, pH 8.3). The cathode buffer was additionally supplemented with 750 μL Coomassi Blue G250 [final concentration ca. 0.04% (w/v)]. Membranes were transferred and probed as described above.

Series [3] deals with HCT116 xenografts. Put plainly: [18F]-D4-FCH PET imaging. The class given is in vivo, BALB/c nude mice. An excerpt:
Mice were anesthetized through isoflurane inhalation and scanned on a Siemens Multimodality Inveon small animal PET-CT scanner for [^18F]-D4-FCH PET studies using HCT116 xenografts. Low dose CT scans were first acquired (80 kVp, 0.5 mA, 220 degree rotation, 600 ms per degree exposure time, 80 μm reconstruction pixel size) for PET attenuation correction and anatomical reference. PET images were acquired following a bolus i.v. injection of approximately 3.7 MBq tracer in the tail vein. Dynamic emission scans were acquired in list mode format over 60 minutes. Data were sorted into 0.5 mm sinogram bins and 19 time frames for image reconstruction by filtered back projection (4 × 15 seconds, 4 × 60 seconds and 11 × 300 seconds). The Siemens Inveon Research Workplace software was used for visualization of radiotracer uptake. To define 3-dimensional regions of interest (ROI), 30 to 60-minute cumulative images of the dynamic were employed. Arterial input function was estimated by drawing ROIs over the center of the heart cavity using cumulative images from 0.25 to 2 minutes of the dynamic series, a method previously validated for use in rodents. The count densities were averaged for all ROIs at each time point to obtain time versus radioactivity curves (TAC). Tumor TACs were normalized to injected dose measured by a VDC-304 dose calibrator (Veenstra Instruments) and normalized uptake was expressed as percentage injected dose per mL tissue (NUV; %ID/mL).

For the next series, the system named is A549 cells. Put plainly: Comparative antiproliferative activity. The class given is cell-based, human. As to the method: as §1
Series [4] concerns HCT116 cells. As to the kind of experiment: [3H]acetate uptake. The class given is cell-based, human. How it is done:
as §1

Series [5] can be described thus: Tissue pharmacokinetics in HCT116 xenograft bearing mice. The class given is in vivo, BALB/c nude mice. To be noted: 10 mg/kg i.p. How it is done:
Plasma pharmacokinetic parameters of ICL-CCIC-0019 were established in female BALB/c mice aged 6–8 weeks (Harlan). Mice were intraperitoneally (i.p.) or perorally (p.o.) administered a single dose of 10 mg/kg and blood collected by cardiac puncture after 5, 15, 30 minutes and 1, 2, 4, 6 and 24 h. For tissue pharmacokinetic studies, HCT116 xenograft bearing mice were administered 10 mg/kg ICL-CCIC-0019 i.p. and blood collected after 5 minutes, 2, 6 and 24 h. Plasma was obtained by centrifugation at 1000 × g for 10 minutes. Samples were snap-frozen and stored at −80°C prior to analysis. Analysis was carried out by Cyprotex Inc. using liquid chromatography–mass spectrometry (LC–MS). For analysis of plasma metabolites, 2-hour samples of tissue pharmacokinetic studies were pooled.

Read-outs that look alike come from different tables or passages of the source.

T1 sequence (P35790 whole entry): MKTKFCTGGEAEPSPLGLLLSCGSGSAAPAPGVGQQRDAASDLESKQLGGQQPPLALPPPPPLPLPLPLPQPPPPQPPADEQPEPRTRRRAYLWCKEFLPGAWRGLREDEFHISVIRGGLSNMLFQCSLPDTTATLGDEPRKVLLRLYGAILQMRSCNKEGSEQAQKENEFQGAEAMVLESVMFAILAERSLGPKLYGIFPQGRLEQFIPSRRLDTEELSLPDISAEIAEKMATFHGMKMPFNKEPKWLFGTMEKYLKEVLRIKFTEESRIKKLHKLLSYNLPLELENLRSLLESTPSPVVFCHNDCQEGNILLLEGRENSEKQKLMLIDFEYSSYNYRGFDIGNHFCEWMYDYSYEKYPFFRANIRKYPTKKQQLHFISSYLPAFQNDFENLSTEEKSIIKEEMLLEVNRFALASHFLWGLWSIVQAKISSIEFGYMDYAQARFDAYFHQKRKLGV

On to `CN(C)c1cc[n+](CCCCCCCCCCCC[n+]2ccc(N(C)C)cc2)cc1` [ICL-CCIC-0019], for which the antitumour activity entry in the series on HCT116 xenografts [1] is “potent antitumour activity”. Besides, the GI50 in the series on 2 normal cell lines was 30 to 120 µM; in the series with 8 cancer cell lines (read-out: GI50 range), 0.38 to 2.7 µM; with 8 cancer cell lines (read-out: mean GI50), 1.09 µM. Further, the “formation of reactive oxygen species” value in the series with HCT116 cells [2] is “not accompanied by formation of reactive oxygen species”. Besides, the CHKA enzyme dimerization result on CHKA was “not compromised”. Further, the “[18F]-D4-FCH tumor uptake AUC0–60” value in the series with HCT116 xenografts [3] (6 hours after 10 mg/kg i.p. single dose) was 187.7 (%ID/mL)*min; in the series with HCT116 xenografts [3] (24 hours after 10 mg/kg i.p. single dose) it was 145.8 (%ID/mL)*min; in the series with HCT116 xenografts [3] (48 hours after 10 mg/kg i.p. single dose) it was 139.4 (%ID/mL)*min. Besides, the “antiproliferative activity compared with CK37” value in the series with A549 cells was “superior to CK37”. In addition, the “antiproliferative activity compared with MN58B” value with A549 cells is given as “equipotent to MN58B”. In addition, the “increase of acetate uptake” value with HCT116 cells [4] was 10 fold. In addition, in [5], the “time of peak tumor concentration post injection” value worked out at 2 h.
